Data on 12 compounds can be found in patent US11667649B2, “Heteroaromatic macrocyclic ether chemotherapeutic agents” (Nuvalent, Inc., priority 2020, dated 2023).

This test concerns TPM3-NTRK1-wt IC50 / primary target (e.g. CD74-ROS1-wt) IC50, Ba/F3 cells. As to the kind of experiment: Cell assay TRKA selectivity (TRKA potency divided by primary target potency). The test is classed as cell-based. Particulars: for TPM3-NTRK1-wt/CD74-ROS1-G2032R: TRKA selectivity ratio: TPM3-NTRK1-wt IC50 / CD74-ROS1-G2032R IC50, Ba/F3 cells; for TPM3-NTRK1-wt/CD74-ROS1-wt: TRKA selectivity ratio: TPM3-NTRK1-wt IC50 / CD74-ROS1-wt IC50, Ba/F3 cells; for TPM3-NTRK1-wt/EML4-ALK-L1196M-G1202R: TRKA selectivity ratio: TPM3-NTRK1-wt IC50 / EML4-ALK-L1196M-G1202R IC50, Ba/F3 cells; for TPM3-NTRK1-wt/EML4-ALK-wt: TRKA selectivity ratio: TPM3-NTRK1-wt IC50 / EML4-ALK-wt IC50, Ba/F3 cells. In a few lines:
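IL-3-independent Ba/F3 lines stably expressing TPM3-TRKA or the primary fusion (e.g. CD74-ROS1 wt) were exposed to 3-fold compound dilutions for 72 h. Viability was read by CellTiter-Glo luminescence, with IC50 from four-parameter logistic fit. Selectivity is TPM3-NTRK1 IC50 divided by primary-target IC50, binned A (>30-fold) to D (<1).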

Take `C[C@H]1Oc2cc(cnc2N)-c2c(nnn2CC2CC2)Cc2cccnc2-c2ccc(F)cc21` [Example 116, (20R)-3-(cyclopropylmethyl)-17-fluoro-20-methyl-21-oxa-3,4,5,12,24-pentaazapentacyclo[20.3.1.0^2,^6.0^8,^13.0^14,^19]hexacosa-1(25),2(6),4,8(13),9,11,14,16,18,22(26),23-undecaen-23-amine]: the TPM3-NTRK1-wt/CD74-ROS1-G2032R entry is “A (bin A for very high selectivity, ratio>30-fold)”; the TPM3-NTRK1-wt/CD74-ROS1-wt result is given as “A (bin A for very high selectivity, ratio>30-fold)”; the TPM3-NTRK1-wt/EML4-ALK-L1196M-G1202R entry is “A (bin A for very high selectivity, ratio>30-fold)”; the TPM3-NTRK1-wt/EML4-ALK-wt result is “A (bin A for very high selectivity, ratio>30-fold)”.

For `C[C@H]1Oc2cc(cnc2N)-c2c(C#N)nn(C)c2Cc2ccccc2-c2ccc(F)cc21` [Example 117, (20R)-23-amino-17-fluoro-5,20-dimethyl-21-oxa-4,5,24-triazapentacyclo[20.3.1.0^2,^6.0^8,^13.0^14,^19]hexacosa-1(25),2(6),3,8(13),9,11,14,16,18,22(26),23-undecaene-3-carbonitrile], the TPM3-NTRK1-wt/CD74-ROS1-G2032R result was “A (bin A for very high selectivity, ratio>30-fold)”; the TPM3-NTRK1-wt/CD74-ROS1-wt entry is reported as “A (bin A for very high selectivity, ratio>30-fold)”; the TPM3-NTRK1-wt/EML4-ALK-L1196M-G1202R result was “B (bin B for high selectivity, ratio>10-fold)”; the TPM3-NTRK1-wt/EML4-ALK-wt entry was “A (bin A for very high selectivity, ratio>30-fold)”.

For the compound `CC(C)n1nc2c(c1C#N)-c1cnc(N)c(c1)O[C@H](C)c1cc(F)ccc1-n1nccc1C2` [Example 118, (19R)-22-amino-16-fluoro-19-methyl-4-(propan-2-yl)-20-oxa-4,5,11,12,23-pentaazapentacyclo[19.3.1.0^2,^6.0^8,^12.0^13,^18]pentacosa-1(24),2,5,8,10,13,15,17,21(25),22-decaene-3-carbonitrile], the TPM3-NTRK1-wt/CD74-ROS1-G2032R result is “D (bin D for low selectivity, ratio<1)”; the TPM3-NTRK1-wt/CD74-ROS1-wt result was “A (bin A for very high selectivity, ratio>30-fold)”; the TPM3-NTRK1-wt/EML4-ALK-L1196M-G1202R entry was “D (bin D for low selectivity, ratio<1)”; the TPM3-NTRK1-wt/EML4-ALK-wt result is “A (bin A for very high selectivity, ratio>30-fold)”.

As to `CCn1nc2c(c1C#N)-c1cnc(N)c(c1)O[C@H](C)c1cc(F)ccc1-n1nccc1C2` [Example 119, (19R)-22-amino-4-ethyl-16-fluoro-19-methyl-20-oxa-4,5,11,12,23-pentaazapentacyclo[19.3.1.0^2,^6.0^8,^12.0^13,^18]pentacosa-1(24),2,5,8,10,13,15,17,21(25),22-decaene-3-carbonitrile], the TPM3-NTRK1-wt/CD74-ROS1-G2032R result is given as “D (bin D for low selectivity, ratio<1)”; the TPM3-NTRK1-wt/CD74-ROS1-wt result is listed as “A (bin A for very high selectivity, ratio>30-fold)”; the TPM3-NTRK1-wt/EML4-ALK-L1196M-G1202R result is given as “D (bin D for low selectivity, ratio<1)”; the TPM3-NTRK1-wt/EML4-ALK-wt entry is on record as “A (bin A for very high selectivity, ratio>30-fold)”.

In the case of `CCc1noc2c1-c1cnc(N)c(c1)O[C@H](C)c1cc(F)ccc1-c1nncn1C2` [Example 120, (19R)-3-ethyl-16-fluoro-19-methyl-5,20-dioxa-4,8,10,11,23-pentaazapentacyclo[19.3.1.0^2,^6.0^8,^12.0^13,^18]pentacosa-1(24),2(6),3,9,11,13,15,17,21(25),22-decaen-22-amine], the TPM3-NTRK1-wt/CD74-ROS1-G2032R result is recorded as “C (bin C for moderate selectivity, ratio≥1)”; the TPM3-NTRK1-wt/CD74-ROS1-wt entry is given as “A (bin A for very high selectivity, ratio>30-fold)”; the TPM3-NTRK1-wt/EML4-ALK-L1196M-G1202R result is reported as “D (bin D for low selectivity, ratio<1)”; the TPM3-NTRK1-wt/EML4-ALK-wt entry was “C (bin C for moderate selectivity, ratio≥1)”.

Regarding `C[C@H]1Oc2cc(cnc2N)-c2c(cnn2CC2CC2)Cc2cn(C)nc2-c2ccc(F)cc21` [Example 121, (19R)-3-(cyclopropylmethyl)-16-fluoro-10,19-dimethyl-20-oxa-3,4,10,11,23-pentaazapentacyclo[19.3.1.0^2,^6.0^8,^12.0^13,^18]pentacosa-1(24),2(6),4,8,11,13,15,17,21(25),22-decaen-22-amine], the TPM3-NTRK1-wt/CD74-ROS1-G2032R result is “A (bin A for very high selectivity, ratio>30-fold)”; the TPM3-NTRK1-wt/CD74-ROS1-wt result is listed as “A (bin A for very high selectivity, ratio>30-fold)”; the TPM3-NTRK1-wt/EML4-ALK-L1196M-G1202R entry is listed as “A (bin A for very high selectivity, ratio>30-fold)”; the TPM3-NTRK1-wt/EML4-ALK-wt entry is recorded as “A (bin A for very high selectivity, ratio>30-fold)”.

Regarding `C[C@H]1Oc2cc(cnc2N)-c2c(nnn2CC2CC2)Cc2cc(C(F)F)nn2-c2ccc(F)cc21` [Example 122, (19R)-3-(cyclopropylmethyl)-10-(difluoromethyl)-16-fluoro-19-methyl-20-oxa-3,4,5,11,12,23-hexaazapentacyclo[19.3.1.0^2,^6.0^8,^12.0^13,^18]pentacosa-1(24),2(6),4,8,10,13,15,17,21(25),22-decaen-22-amine], the TPM3-NTRK1-wt/CD74-ROS1-G2032R entry is “A (bin A for very high selectivity, ratio>30-fold)”; the TPM3-NTRK1-wt/CD74-ROS1-wt result is listed as “A (bin A for very high selectivity, ratio>30-fold)”; the TPM3-NTRK1-wt/EML4-ALK-L1196M-G1202R result is recorded as “C (bin C for moderate selectivity, ratio≥1)”; the TPM3-NTRK1-wt/EML4-ALK-wt entry was “B (bin B for high selectivity, ratio>10-fold)”.

In the case of `C[C@H]1Oc2cc(cnc2N)-c2c(c(C#N)nn2CC2CC2)Cc2cccnc2-c2ccc(F)cc21` [Example 123, (20R)-23-amino-3-(cyclopropylmethyl)-17-fluoro-20-methyl-21-oxa-3,4,12,24-tetraazapentacyclo[20.3.1.0^2,^6.0^8,^13.0^14,^19]hexacosa-1(25),2(6),4,8(13),9,11,14,16,18,22(26),23-undecaene-5-carbonitrile], the TPM3-NTRK1-wt/CD74-ROS1-G2032R entry was “C (bin C for moderate selectivity, ratio≥1)”; the TPM3-NTRK1-wt/CD74-ROS1-wt entry is “A (bin A for very high selectivity, ratio>30-fold)”; the TPM3-NTRK1-wt/EML4-ALK-L1196M-G1202R result is “C (bin C for moderate selectivity, ratio≥1)”; the TPM3-NTRK1-wt/EML4-ALK-wt result is “A (bin A for very high selectivity, ratio>30-fold)”.

Turning to `COc1cc2n(n1)-c1ccc(F)cc1[C@@H](C)Oc1cc(cnc1N)-c1c(c(C)nn1CC1CC1)C2` [Example 124, (19R)-3-(cyclopropylmethyl)-16-fluoro-10-methoxy-5,19-dimethyl-20-oxa-3,4,11,12,23-pentaazapentacyclo[19.3.1.0^2,^6.0^8,^12.0^13,^18]pentacosa-1(24),2(6),4,8,10,13,15,17,21(25),22-decaen-22-amine], the TPM3-NTRK1-wt/CD74-ROS1-G2032R entry is listed as “A (bin A for very high selectivity, ratio>30-fold)”; the TPM3-NTRK1-wt/CD74-ROS1-wt result is reported as “A (bin A for very high selectivity, ratio>30-fold)”; the TPM3-NTRK1-wt/EML4-ALK-L1196M-G1202R result is reported as “A (bin A for very high selectivity, ratio>30-fold)”; the TPM3-NTRK1-wt/EML4-ALK-wt result was “A (bin A for very high selectivity, ratio>30-fold)”.

`Cc1nn(CC2CC2)c2c1Cc1cc(C(F)F)nn1-c1ccc(F)cc1[C@@H](C)Oc1cc-2cnc1N` [Example 125, (19R)-3-(cyclopropylmethyl)-10-(difluoromethyl)-16-fluoro-5,19-dimethyl-20-oxa-3,4,11,12,23-pentaazapentacyclo[19.3.1.0^2,^6.0^8,^12.0^13,^18]pentacosa-1(24),2(6),4,8,10,13,15,17,21(25),22-decaen-22-amine]: the TPM3-NTRK1-wt/CD74-ROS1-G2032R result is “A (bin A for very high selectivity, ratio>30-fold)”; the TPM3-NTRK1-wt/CD74-ROS1-wt result is recorded as “A (bin A for very high selectivity, ratio>30-fold)”; the TPM3-NTRK1-wt/EML4-ALK-L1196M-G1202R entry is “A (bin A for very high selectivity, ratio>30-fold)”; the TPM3-NTRK1-wt/EML4-ALK-wt result was “A (bin A for very high selectivity, ratio>30-fold)”.

As for `Cc1cc2n(n1)-c1ccc(F)cc1COc1cc(cnc1N)-c1c(cnn1CC1CC1)C2` [Example 126, 3-(cyclopropylmethyl)-16-fluoro-10-methyl-20-oxa-3,4,11,12,23-pentaazapentacyclo[19.3.1.0^2,^6.0^8,^12.0^13,^18]pentacosa-1(24),2(6),4,8,10,13,15,17,21(25),22-decaen-22-amine], the TPM3-NTRK1-wt/CD74-ROS1-G2032R result is “A (bin A for very high selectivity, ratio>30-fold)”; the TPM3-NTRK1-wt/CD74-ROS1-wt entry is recorded as “A (bin A for very high selectivity, ratio>30-fold)”; the TPM3-NTRK1-wt/EML4-ALK-L1196M-G1202R entry is listed as “A (bin A for very high selectivity, ratio>30-fold)”; the TPM3-NTRK1-wt/EML4-ALK-wt result is given as “A (bin A for very high selectivity, ratio>30-fold)”.

In the case of `Cc1nn(CC2CC2)c2c1Cc1cn(C)nc1-c1ccc(F)cc1COc1cc-2cnc1N` [Example 127, 3-(cyclopropylmethyl)-16-fluoro-5,10-dimethyl-20-oxa-3,4,10,11,23-pentaazapentacyclo[19.3.1.0^2,^6.0^8,^12.0^13,^18]pentacosa-1(24),2(6),4,8,11,13,15,17,21(25),22-decaen-22-amine], the TPM3-NTRK1-wt/CD74-ROS1-G2032R entry is listed as “A (bin A for very high selectivity, ratio>30-fold)”; the TPM3-NTRK1-wt/CD74-ROS1-wt result is listed as “A (bin A for very high selectivity, ratio>30-fold)”; the TPM3-NTRK1-wt/EML4-ALK-L1196M-G1202R entry was “A (bin A for very high selectivity, ratio>30-fold)”; the TPM3-NTRK1-wt/EML4-ALK-wt result is “A (bin A for very high selectivity, ratio>30-fold)”.
